The supplement of paper PMC10307832

Tests used:
Experiment in all cases: relative viability (nuclei count vs DMSO), 5 days (fraction); higher = more cells survive
[1] = compound: C[As](C)SC[C@H](NC(=O)CC[C@H](N)C(=O)O)C(=O)NCC(=O)O [Darinaparsin] + Nc1nc2[nH]cc(CCc3ccc(C(=O)N[C@@H](CCC(=O)O)C(=O)O)cc3)c2c(=O)[nH]1 [Pemetrexed] (partner 0.2 µM)
Procedure, shortened: (§1)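 Five library-drug doses in √10 steps were combined with a fixed anchor-drug dose, or a single drug was given alone, by pin tool to lung cancer cell lines in 1536-well plates the day after seeding. Nuclei were stained and counted after 5 days. Relative viability is the nuclei count in treated wells over that in vehicle wells, taken as the median of duplicate plates.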

AZ628 + Trametinib = compound: CC1=C(C=C(C=C1)NC(=O)C2=CC(=CC=C2)C(C)(C)C#N)NC3=CC4=C(C=C3)N=CN(C4=O)C [AZ628] + CC(=O)Nc1cccc(-n2c(=O)n(C3CC3)c(=O)c3c(Nc4ccc(I)cc4F)n(C)c(=O)c(C)c32)c1 [Trametinib] (partner 0.02 µM)
Procedure, shortened: as §1

QS11 + Pemetrexed = compound: C1CC2=C(C1)C=C(C=C2)OC3=NC(=C4C(=N3)N(C=N4)CC5=CC=C(C=C5)C6=CC=CC=C6)N[C@@H](CC7=CC=CC=C7)CO [QS11] + Nc1nc2[nH]cc(CCc3ccc(C(=O)N[C@@H](CCC(=O)O)C(=O)O)cc3)c2c(=O)[nH]1 [Pemetrexed] (partner 0.2 µM)
Procedure, shortened: as §1

AZ628 + Foretinib = compound: CC1=C(C=C(C=C1)NC(=O)C2=CC(=CC=C2)C(C)(C)C#N)NC3=CC4=C(C=C3)N=CN(C4=O)C [AZ628] + COc1cc2c(Oc3ccc(NC(=O)C4(C(=O)Nc5ccc(F)cc5)CC4)cc3F)ccnc2cc1OCCCN1CCOCC1 [Foretinib] (partner 0.25 µM)
Procedure, shortened: as §1

Question: LCLC-97TM1 was tested. Which relative viability ([1]; first compound 0.08 µM) did it give?
Answer: 0.162

Question: And the relative viability ([1]; first compound 0.8 µM)?
Answer: 0.177

Question: And the relative viability ([1]; first compound 2.53 µM)?
Answer: 0.166

Question: What about the relative viability ([1]; first compound 8 µM) of the same cell line?
Answer: 0.185

Question: What about the relative viability (AZ628 + Trametinib; first compound 0.08 µM) of the same cell line?
Answer: 0.126

Question: And the relative viability (AZ628 + Trametinib; first compound 0.253 µM)?
Answer: 0.118

Question: What about the relative viability (AZ628 + Trametinib; first compound 0.8 µM) of the same cell line?
Answer: 0.114

Question: What about the relative viability (AZ628 + Trametinib; first compound 2.53 µM) of the same cell line?
Answer: 0.0994

Question: And the relative viability (AZ628 + Trametinib; first compound 8 µM)?
Answer: 0.116

Question: And the relative viability (QS11 + Pemetrexed; first compound 0.253 µM)?
Answer: 0.167

Question: What about the relative viability (QS11 + Pemetrexed; first compound 2.53 µM) of the same cell line?
Answer: 0.182

Question: And the relative viability (QS11 + Pemetrexed; first compound 8 µM)?
Answer: 0.202

Question: And the relative viability (AZ628 + Foretinib; first compound 0.08 µM)?
Answer: 0.95

Question: What about the relative viability (AZ628 + Foretinib; first compound 0.253 µM) of the same cell line?
Answer: 0.867

Question: And the relative viability (AZ628 + Foretinib; first compound 0.8 µM)?
Answer: 0.805

Question: What about the relative viability (AZ628 + Foretinib; first compound 2.53 µM) of the same cell line?
Answer: 0.682

Question: And the relative viability (AZ628 + Foretinib; first compound 8 µM)?
Answer: 0.301
